According to publication PMC10216263, “Favorable Preclinical Pharmacological Profile of a Novel Antimalarial Pyrrolizidinylmethyl Derivative of 4-amino-7-chloroquinoline with Potent In Vitro and In Vivo Activities” (Biomolecules, 2023):
Read-outs that look alike come from different tables or passages of the source.

Tests used:
[1] = test system: Salmonella typhimurium TA100; test: Bacterial Reverse Mutation Assay; details: Positive Control 1.25 µg/plate, TA 100, with metabolic activation
Method: (§8) using the preincubation method (30 min, 37°C) with and without phenobarbital-5,6-benzoflavone induced
(§9) MG3 was dissolved in distilled water (H2O) at
(§10) the maximum concentration of 40 mg/mL and tested in a preliminary range-finding test in all strains of
(§11) metabolic activation to determine the toxicity of the compound.

[2] = test system: Escherichia coli WP2 uvrA; test: Bacterial Reverse Mutation Assay; details: Positive Control 5 µg/plate, with metabolic activation
Method: as §8, §9, §10, §11

[3] = test system: Salmonella typhimurium TA98; test: Bacterial Reverse Mutation Assay; details: Positive Control 1.25 g/plate, TA 98, with metabolic activation
Method: as §8, §9, §10, §11

[4] = cited from earlier work
[5] = test system: P. falciparum K1 (CQ-R); test: In vitro antimalarial activity, [3H]-hypoxanthine incorporation (LSHTM); format: cell-based; details: Plasmodium falciparum
[6] = test system: P. falciparum field isolates; test: Chemosensitivity assay on field isolates; format: cell-based; details: Plasmodium falciparum
Method: (§1) The 10 P. vivax and 10 P. falciparum isolates used in this study were obtained from Mae Sod District, Tak Province, Thailand. […] Isolates were collected in 5 mL lithium-heparinized tubes and sent to the laboratory within 5–6 h.

[7] = test system: P. vivax field isolates; test: Chemosensitivity assay on field isolates; format: cell-based; details: Plasmodium vivax, read-out: P. vivax IC50 nM, Field Isolates
Method: as §1

[8] = test system: P. berghei ANKA; test: Oral curative activity against P. berghei ANKA; format: in vivo, P. berghei in mice; details: for Average survival (days) after infection: individual values in brackets
[9] = test system: P. falciparum V1-S (CQ-R); test: In vitro antimalarial activity, [3H]-hypoxanthine incorporation (LSHTM); format: cell-based; details: Plasmodium falciparum, read-out: P. falciparum IC50 nM, V1-S (CQ-R)
[10] = test system: P. falciparum TM90C2A (CQ-R); test: as above; format: cell-based; details: Plasmodium falciparum, read-out: P. falciparum IC50 nM, TM90C2A (CQ-R)
[11] = test system: P. falciparum FCR3 (CQ-R); test: as above; format: cell-based; details: Plasmodium falciparum
[12] = test system: P. falciparum D10 (CQ-S); design: method as in PMID 18538567; details: 72 h incubation, pLDH method, mean of 3 experiments; cited from earlier work
[13] = test system: P. falciparum IPC5202 (ARM-R); test: microbe, parasite or virus in culture; format: cell-based; details: Plasmodium falciparum, 72 h
Method: The strains D10 and 3D7 (CQ-Sensitive), and V1-S (CQ, pyrimethamine and cycloguanil resistant), K1 (CQ and PYR resistant), W2 and FCR3 (CQ-Resistant), TM90C2A (CQ, MQ, PYR and ATQ resistant) and IPC 5202 (MR4-1240, artemisinin-resistant, K13 mutation, and R539T) of Pf were cultured in vitro as described by Trager and Jensen with minor modifications. Briefly, parasites were maintained at 5% hematocrit (human type A-positive red blood cells) in RPMI 1640 (EuroClone, S.p.A. Milan, Italy) medium with the addition of 10% heat inactivate human serum or 1% AlbuMax (In vitrogen, Milan, Italy), 20 mM Hepes and 2 mM glutamine (Euroclone), at 37 °C in a standard gas mixture consisting of 1–3% O2, 5% CO2, and 92–94% N2.
Compounds were dissolved in either water or DMSO and then diluted with medium to achieve the required concentrations (final non-toxic DMSO concentration <1%). Asynchronous cultures of Pf with parasitaemia of 1–1.5% and 1% final hematocrit were aliquoted into 96-well flat-bottom microplates (Corning, Glendale, AZ, USA) with serial dilutions of test compounds and incubated for 72 h at 37 °C. Parasite growth was determined spectrophotometrically (OD650) by measuring the activity of the parasite lactate dehydrogenase (pLDH) according to a modified version of the method of Makler in control and drug-treated cultures.

[14] = test system: P. falciparum 3D7 (CQ-S); test: In vitro antimalarial activity, [3H]-hypoxanthine incorporation (LSHTM); format: cell-based; details: Plasmodium falciparum, 3D7, read-out: P. falciparum IC50 nM, 3D7 (CQ-S)
[15] = test system: P. falciparum K1 (CQ-R); test: In vitro combination study (isobologram, ∑FIC); format: cell-based
[16] = test system: Pf-3D7 gametocytes >95% Stage I-III; test: Gametocyte luciferase assay (3D7elo1-pfs16-CBG99); format: cell-based, P. falciparum; details: Plasmodium falciparum
Method: (§2) In vitro activity of MG3 against P falciparum sexual gametocyte stages […]
(§3) luminescent transgenic 3D7 strain (3D7elo1-pfs16-CBG99) at two different stages (I-III and V) using the […]
(§4) Briefly, 100 µL of culture medium were removed from each well to increase hematocrit; 70 µL of resuspended culture were transferred to a black 96-well plate; 70 µL of D-luciferin (1 mM in citrate buffer 0.1 M, pH 5.5) were added. Luminescence measurements were performed after 10 min with 500 ms integration time using a Synergy4-BioTek reader.
(§5) (1 picture or pasted object on this page, not shown here)

[17] = test system: Pf-3D7 gametocytes >95% Stage V; test: Gametocyte luciferase assay (3D7elo1-pfs16-CBG99); format: cell-based, P. falciparum; details: Plasmodium falciparum, 3D7, read-out: Pf-3D7 gametocytes IC50 (nM), >95% Stage V
Method: as §2, §3, §4, §5

[18] = test system: P. falciparum W2 (CQ-R); design: method as in PMID 18538567; details: 72 h incubation, pLDH method, mean of 3 experiments; cited from earlier work
[19] = test system: P. berghei ANKA; design: method as in PMID 19284751; details: oral 4-day test; cited from earlier work
[20] = test system: P. yoelii NS; design: method as in PMID 19284751; details: oral 4-day test; cited from earlier work
[21] = test system: dog hepatocytes; test: Metabolic profiling in hepatocytes; format: in vitro ADME; details: 1 h, 10 µM
Method: (§6) For metabolite profiling, MG3.2HCl (10 µM) was incubated with mouse, rat, dog, monkey, and human hepatocytes (300,000 cells/mL for the mouse and 1 × 10^6 cells/mL for the other species) in Leibovitz L-15 medium, at 37 °C. Incubations were performed in a 12-well plate under shaking. Aliquots of the incubation samples, together with a control in medium alone, were taken at t = 0 and 60 min; the metabolism was stopped by the addition of an equal volume of chilled ACN and the samples were centrifuged at 1100 rpm for 20 min. The supernatant was stored at −20 °C until analysis. The analyses were performed using an HPLC system (Agilent) online with a photodiode array (PDA) detector (Agilent) coupled to a Mass Spectrometer Q-TOF 2 (Waters), ESI positive, following the method reported in Table 1.
(§7) The software utilized for searching the accurate masses of possible metabolites was Metabolynx, version 4.1 (Waters Corporation, Milford, MA, USA), with a mass window of 40 mDa. Samples were then re-run in MS/MS mode by selecting the masses of possible metabolites found. The collision energy used to obtain MS/MS data was 25 eV. The proposed identity of metabolites was based on their accurate mass (using LockSpray correction), with an accuracy of +/−5 mDa. MS/MS analyses were performed to verify that peaks were drug-related and to obtain structural information from the fragment ions formed. The structures of some metabolites are proposed. The approximate relative amounts of parent and metabolites were determined from the absolute areas taken from a selected ion chromatogram at the metabolite masses with a mass window of 0.04 Da.

[22] = test system: rat hepatocytes; test: Metabolic profiling in hepatocytes; format: in vitro ADME; details: rat, 60 min, 10 µM
Method: as §6, §7

[23] = test system: human hepatocytes; test: Metabolic profiling in hepatocytes; format: in vitro ADME; details: human, 60 min, 10 µM
Method: as §6, §7

[24] = test system: mouse hepatocytes; test: Metabolic profiling in hepatocytes; format: in vitro ADME; details: 1 h, 10 µM
Method: as §6, §7

[25] = test system: monkey hepatocytes; test: Metabolic profiling in hepatocytes; format: in vitro ADME; details: 1 h, 10 µM
Method: as §6, §7

[26] = test system: P. falciparum K1 (CQ-R); design: method as in PMID 17466277; details: literature value; read-out: IC50 against K1 strain; cited from earlier work
[27] = 72 h, [3H]-hypoxanthine incorporation, mean of 3 experiments
[28] = K1, read-out: P. falciparum IC50 nM, K1 (CQ-R)
[29] = FCR3, read-out: P. falciparum IC50 nM, FCR3 (CQ-R)

In the case of `Nc1ccc2cc3ccccc3cc2c1` [2-aminoanthracene, reference compound], the “fold increase value (ratio treated/solvent revertant numbers)” value ([1]; I° Exp.) is reported as 5.1, the “fold increase value (ratio treated/solvent revertant numbers)” value ([1]; Range finding) is reported as 7.7 and the “fold increase value (ratio treated/solvent revertant numbers)” value ([2]; I° Exp.) is reported as 13.0. The “fold increase value (ratio treated/solvent revertant numbers)” value ([2]; Range finding) was 8.2, the “fold increase value (ratio treated/solvent revertant numbers)” value ([3]; I° Exp.) was 37.2 and the “fold increase value (ratio treated/solvent revertant numbers)” value ([3]; Range finding) was 26.5.
In the case of `CCN(CC)CCCNc1ccnc2cc(Cl)ccc12` [AQ13], the absolute bioavailability ([4]; in vivo) is given as 70%.
`C[C@H]1[C@H](OC(=O)CCC(=O)O)O[C@@H]2O[C@@]3(C)CC[C@H]4[C@H](C)CC[C@@H]1[C@@]24OO3` [ASN, artesunate] showed an IC50 ([5]; K1, 72 h, [3H]-hypoxanthine incorporation, mean of 3 experiments, read-out: P. falciparum IC50 nM, K1 (CQ-R)) of 2.6 nM, an IC50 ([6]; mean of 10 field isolates, Thai Burmese Border, read-out: P. falciparum IC50 nM, Field Isolates) of 4.2 nM and an IC50 ([7]; mean of 10 field isolates, Thai Burmese Border) of 2.3 nM. The “% Suppression of parasitaemia (on day 4 post infection)” value (from here on “% Suppression of parasitaemia”) ([8]; oral dose 3 x 30 mg/kg) was 99.09%, the “Average survival (days) after infection” value ([8]; oral dose 3 x 30 mg/kg) was 8 (7, 8, 8, 9, 9) days and the IC50 [9, 27] was 2.7 nM. It also gave an IC50 [10, 27] of 2.6 nM and an IC50 ([11]; FCR3, 72 h, [3H]-hypoxanthine incorporation, mean of 3 experiments, read-out: P. falciparum IC50 nM, FCR3 (CQ-R)) of 2.6 nM.
In the case of `CCN(CC)Cc1cc(Nc2ccnc3cc(Cl)ccc23)ccc1O` [Amodiaquine, amodiaquine], the “% Suppression of parasitaemia” value ([8]; oral dose 3 x 10 mg/kg) is reported as 100% and the “Average survival (days) after infection” value ([8]; oral dose 3 x 10 mg/kg) is reported as 11 (9, 11, 11, 12, 13) days.
In the case of `CCN(CC)CCCC(C)Nc1ccnc2cc(Cl)ccc12` (stereo not drawn) [CQ, chloroquine], the IC50 [12] is listed as 16.5 nM, the IC50 ([13]; read-out: P. falciparum IC50 nM, IPC5202 (ARM-R)) is listed as 163 nM and the IC50 [5, 28] is listed as 708 nM. It also gave an IC50 [14] of 12.1 nM, an IC50 ([6]; read-out: P. falciparum IC50 nM, Field Isolates, mean of 10 field isolates, Thai Burmese Border) of 252 nM and an IC50 [7] of 86.6 nM. The “Mean ∑FIC50 (95% CI)” value ([15]; in combination with ASN, K1, IC50 level) was 1.67 (1.44 – 1.90), the “Mean ∑FIC50 (95% CI)” value ([15]; in combination with DHA, K1, IC50 level) was 1.27 (1.16 – 1.38) and the “Mean ∑FIC50 (95% CI)” value ([15]; in combination with RKA-182, K1, IC50 level) was 1.19 (0.77 – 1.60). The “% Suppression of parasitaemia” value ([8]; oral dose 3 x 30 mg/kg) was 99.84%, the “Average survival (days) after infection” value ([8]; oral dose 3 x 30 mg/kg) was 13 (12, 12, 13, 13, 13) days and the IC50 ([16]; 3D7, read-out: Pf-3D7 gametocytes IC50 (nM), >95% Stage I-III) was 104 ± 34.7 nM. It also gave an IC50 [17] of 11700 ± 4120 nM, an IC50 [9] of 774 nM and an IC50 [10] of 145 nM. For the same molecule, the IC50 [11, 29] was 194 nM and the IC50 [18] was 294 nM.
For `C[C@H]1[C@@H](O)O[C@@H]2O[C@@]3(C)CC[C@H]4[C@H](C)CC[C@@H]1[C@@]24OO3` [DHA, dihydroartemisinin], the IC50 [12] is listed as 3.9 nM, the IC50 ([13]; read-out: P. falciparum IC50 nM, IPC5202 (ARM-R), 72 h incubation, pLDH method) is listed as 2.2 nM and the IC50 [5, 28] is listed as 1.4 nM. For the same molecule, the IC50 [14] was 3 nM, the IC50 [9] was 1.8 nM and the IC50 [11, 29] was 1.23 nM. For the same molecule, the IC50 [18] was 2 nM.
For `CC(C)(C)NCc1cc(Nc2ccnc3cc(Cl)ccc23)ccc1F` [FAQ4, 4′-Fluoro-N-tert-butylamodiaquine], the “ED50 (95% CI) Mean” value [19] is given as 5.30 (4.10–6.80) mg/kg, the “ED90 (95% CI) Mean” value [19] is given as 12.40 (10.7–14.4) mg/kg and the “ED50 (95% CI) Mean” value [20] is given as 7.70 (6.70–8.90) mg/kg. The “ED90 (95% CI) Mean” value [20] was 10.60 (9.40–11.80) mg/kg.
With `OC(Nc1ccnc2cc(Cl)ccc12)C12CCCN1CCC2` (stereo not drawn) [M2] the “% of Total Drug Related Material” value [21] was 27%, the “% of Total Drug Related Material” value [22] was 6% and the “% of Total Drug Related Material” value [23] was 1%. The “% of Total Drug Related Material” value [24] was 3% and the “% of Total Drug Related Material” value [25] was 1%.
`CN(C)c1ccc2nc3ccc(=[N+](C)C)cc-3sc2c1` [Methylene Blue, reference compound] showed an IC50 ([16]; 3D7, read-out: Pf-3D7 gametocytes IC50 (nM), >95% Stage I-III, luciferase readout, 3D7elo1-pfs16-CBG99) of 59.6 ± 21.7 nM and an IC50 [17] of 145 ± 42.6 nM.
In the case of `CC(C)(C)NCc1ccc(Nc2ccnc3cc(Cl)ccc23)cc1O` [NTBI, N-tert-butyl isoquine], the absolute bioavailability ([4]; literature value) is listed as 68%.
For `Clc1ccc2c(N3CCN(CCCN4CCN(c5ccnc6cc(Cl)ccc56)CC4)CC3)ccnc2c1` [piperaquine], the IC50 [26] is listed as 49 nM.
